In PMC7480398 (Phytomedicine, 2020):

Key:
Assay type in all cases: biochemical
CYP3A4 = CYP3A4 (Homo sapiens, UniProt P08684); test: fluorescent probe substrate; settings: liver microsomes
CYP1A1 = molecular target: T1, CYP1A1 (Homo sapiens, UniProt P04798)
T1 sequence (P04798 1-512): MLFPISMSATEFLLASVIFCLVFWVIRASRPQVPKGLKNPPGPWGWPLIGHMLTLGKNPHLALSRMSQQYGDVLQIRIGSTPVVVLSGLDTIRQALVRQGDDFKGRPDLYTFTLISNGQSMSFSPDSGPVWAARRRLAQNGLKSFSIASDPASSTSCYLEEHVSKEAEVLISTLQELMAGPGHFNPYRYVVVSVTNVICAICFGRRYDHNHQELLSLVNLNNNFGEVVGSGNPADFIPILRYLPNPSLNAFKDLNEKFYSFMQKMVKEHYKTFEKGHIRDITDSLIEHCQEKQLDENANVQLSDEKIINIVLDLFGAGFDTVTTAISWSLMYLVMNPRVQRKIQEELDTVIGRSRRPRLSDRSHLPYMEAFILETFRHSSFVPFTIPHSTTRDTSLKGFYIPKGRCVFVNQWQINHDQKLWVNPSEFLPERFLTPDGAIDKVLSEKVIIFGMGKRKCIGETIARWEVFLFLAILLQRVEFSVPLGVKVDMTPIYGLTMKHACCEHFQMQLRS

PTGS1 = molecular target: T2, PTGS1 (Ovis aries, UniProt P05979); test: colorimetric enzyme activity assay
T2 sequence (P05979 25-600): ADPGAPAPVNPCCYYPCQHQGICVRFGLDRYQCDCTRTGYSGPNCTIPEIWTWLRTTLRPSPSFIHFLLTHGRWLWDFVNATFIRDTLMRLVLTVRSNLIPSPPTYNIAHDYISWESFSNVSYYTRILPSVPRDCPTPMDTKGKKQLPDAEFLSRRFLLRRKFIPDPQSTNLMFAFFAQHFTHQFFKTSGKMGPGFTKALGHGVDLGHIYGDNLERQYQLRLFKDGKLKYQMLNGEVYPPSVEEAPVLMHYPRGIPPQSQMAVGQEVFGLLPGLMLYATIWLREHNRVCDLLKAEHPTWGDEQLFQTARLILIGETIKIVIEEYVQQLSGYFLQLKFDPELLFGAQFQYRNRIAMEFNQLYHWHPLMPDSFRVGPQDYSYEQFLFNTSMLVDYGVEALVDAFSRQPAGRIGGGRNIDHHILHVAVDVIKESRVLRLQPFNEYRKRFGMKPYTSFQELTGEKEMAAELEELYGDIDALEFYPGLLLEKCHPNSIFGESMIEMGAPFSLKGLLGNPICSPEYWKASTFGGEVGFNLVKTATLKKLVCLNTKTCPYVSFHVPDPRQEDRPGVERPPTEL

CYP3A4, sequence (P08684 2-503): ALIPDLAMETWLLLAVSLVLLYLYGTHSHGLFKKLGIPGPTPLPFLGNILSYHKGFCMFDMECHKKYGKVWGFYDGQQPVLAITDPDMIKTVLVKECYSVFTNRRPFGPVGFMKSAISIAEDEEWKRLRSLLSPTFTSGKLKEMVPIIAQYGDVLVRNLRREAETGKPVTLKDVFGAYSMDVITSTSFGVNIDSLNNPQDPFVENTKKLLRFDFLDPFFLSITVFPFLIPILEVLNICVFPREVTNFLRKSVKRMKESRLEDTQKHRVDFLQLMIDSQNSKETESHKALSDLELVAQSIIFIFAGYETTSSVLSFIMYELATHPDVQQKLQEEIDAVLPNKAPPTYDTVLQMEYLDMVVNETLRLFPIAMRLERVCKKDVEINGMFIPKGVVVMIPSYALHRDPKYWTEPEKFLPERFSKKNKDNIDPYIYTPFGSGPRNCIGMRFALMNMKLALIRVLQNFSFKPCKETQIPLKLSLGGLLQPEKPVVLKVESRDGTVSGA

Compound: CC(=O)O[C@@H](C[C@@H](C)C1=C2C[C@H](O)[C@H]3[C@@]4(C)CCC(=O)C(C)(C)[C@@H]4CC[C@]3(C)[C@@]2(C)CC1)[C@H]1OC1(C)C [alisol B 23-acetate]
- IC50 (CYP3A4): 0.45 ± 0.03 µM

Compound: O=c1c(O[C@@H]2O[C@H](CO)[C@H](O)[C@H](O)[C@H]2O)c(-c2ccc(O)c(O)c2)oc2cc(O)cc(O)c12 [hyperoside]
- IC50 (CYP1A1): 105 ± 18.9 µM

Compound: O=C(O)[C@H]1O[C@@H](Oc2cc3oc(-c4ccccc4)cc(=O)c3c(O)c2O)[C@H](O)[C@@H](O)[C@@H]1O [baicalin]
- colorimetric enzyme activity assay (590 nm) (PTGS1): Baicalin inhibited pure PTGS1 and AA induced platelet aggregation at the concentration as shown
